Data published in BigSolDB 2.1.

Q: With `O=C(CCc1ccc(O)cc1)c1c(O)cc(O)cc1O` as the compound, how does the solubility (mole fraction) (in 1,4-dioxane, 288.2 K) read?
A: Its solubility (mole fraction) is 0.0211.

Q: And the solubility (mole fraction) (in 1,4-dioxane, 298.2 K)?
A: Its solubility (mole fraction) is 0.0249.

Q: And the solubility (mole fraction) (in 1,4-dioxane, 308.2 K)?
A: Its solubility (mole fraction) is 0.029.

Q: And the solubility (mole fraction) (in 1,4-dioxane, 318.2 K)?
A: The solubility (mole fraction) was 0.0331.

Q: What about the solubility (mole fraction) (in 1,4-dioxane, 328.2 K) of the same compound?
A: Its solubility (mole fraction) is 0.0384.

Q: And the solubility (mole fraction) (in ethanol, 288.2 K)?
A: Its solubility (mole fraction) is 0.0345.

Q: What about the solubility (mole fraction) (in ethanol, 298.2 K) of the same compound?
A: The solubility (mole fraction) was 0.0373.

Q: What about the solubility (mole fraction) (in ethanol, 308.2 K) of the same compound?
A: The solubility (mole fraction) was 0.0399.

Q: What about the solubility (mole fraction) (in ethanol, 318.2 K) of the same compound?
A: Its solubility (mole fraction) is 0.0421.

Q: What about the solubility (mole fraction) (in ethanol, 328.2 K) of the same compound?
A: Its solubility (mole fraction) is 0.0447.

Q: And the solubility (mole fraction) (in ethyl acetate, 288.2 K)?
A: Its solubility (mole fraction) is 0.0266.

Q: What about the solubility (mole fraction) (in ethyl acetate, 298.2 K) of the same compound?
A: The solubility (mole fraction) was 0.0283.

Q: And the solubility (mole fraction) (in ethyl acetate, 308.2 K)?
A: Its solubility (mole fraction) is 0.0309.

Q: And the solubility (mole fraction) (in ethyl acetate, 318.2 K)?
A: The solubility (mole fraction) was 0.0343.

Q: What about the solubility (mole fraction) (in ethyl acetate, 328.2 K) of the same compound?
A: The solubility (mole fraction) was 0.037.

Q: And the solubility (mole fraction) (in isopropanol, 288.2 K)?
A: Its solubility (mole fraction) is 0.0351.

Q: And the solubility (mole fraction) (in isopropanol, 298.2 K)?
A: Its solubility (mole fraction) is 0.0374.

Q: What about the solubility (mole fraction) (in isopropanol, 308.2 K) of the same compound?
A: The solubility (mole fraction) was 0.039.

Q: What about the solubility (mole fraction) (in isopropanol, 318.2 K) of the same compound?
A: Its solubility (mole fraction) is 0.0411.

Q: What about the solubility (mole fraction) (in isopropanol, 328.2 K) of the same compound?
A: The solubility (mole fraction) was 0.0429.

Q: And the solubility (mole fraction) (in methanol, 288.2 K)?
A: Its solubility (mole fraction) is 0.0245.

Q: And the solubility (mole fraction) (in methanol, 298.2 K)?
A: The solubility (mole fraction) was 0.0259.

Q: What about the solubility (mole fraction) (in methanol, 308.2 K) of the same compound?
A: The solubility (mole fraction) was 0.0275.

Q: What about the solubility (mole fraction) (in methanol, 318.2 K) of the same compound?
A: Its solubility (mole fraction) is 0.0299.

Q: What about the solubility (mole fraction) (in methanol, 328.2 K) of the same compound?
A: Its solubility (mole fraction) is 0.0317.

Q: What about the solubility (mole fraction) (in n-butanol, 288.2 K) of the same compound?
A: Its solubility (mole fraction) is 0.0336.

Q: And the solubility (mole fraction) (in n-butanol, 298.2 K)?
A: The solubility (mole fraction) was 0.035.

Q: And the solubility (mole fraction) (in n-butanol, 308.2 K)?
A: Its solubility (mole fraction) is 0.0362.

Q: And the solubility (mole fraction) (in n-butanol, 318.2 K)?
A: The solubility (mole fraction) was 0.0378.

Q: And the solubility (mole fraction) (in n-butanol, 328.2 K)?
A: The solubility (mole fraction) was 0.0394.

Q: And the solubility (mole fraction) (in n-butyl acetate, 288.2 K)?
A: The solubility (mole fraction) was 0.0258.

Q: What about the solubility (mole fraction) (in n-butyl acetate, 298.2 K) of the same compound?
A: Its solubility (mole fraction) is 0.0281.

Q: And the solubility (mole fraction) (in n-butyl acetate, 308.2 K)?
A: Its solubility (mole fraction) is 0.0305.

Q: What about the solubility (mole fraction) (in n-butyl acetate, 318.2 K) of the same compound?
A: The solubility (mole fraction) was 0.0323.

Q: And the solubility (mole fraction) (in n-butyl acetate, 328.2 K)?
A: Its solubility (mole fraction) is 0.0346.

Q: What about the solubility (mole fraction) (in n-hexanol, 288.2 K) of the same compound?
A: The solubility (mole fraction) was 0.0289.

Q: And the solubility (mole fraction) (in n-hexanol, 298.2 K)?
A: The solubility (mole fraction) was 0.0313.

Q: What about the solubility (mole fraction) (in n-hexanol, 308.2 K) of the same compound?
A: The solubility (mole fraction) was 0.0332.

Q: And the solubility (mole fraction) (in n-hexanol, 318.2 K)?
A: The solubility (mole fraction) was 0.0347.

Q: And the solubility (mole fraction) (in n-hexanol, 328.2 K)?
A: The solubility (mole fraction) was 0.0366.

Q: What about the solubility (mole fraction) (in n-pentanol, 288.2 K) of the same compound?
A: Its solubility (mole fraction) is 0.0301.

Q: And the solubility (mole fraction) (in n-pentanol, 298.2 K)?
A: Its solubility (mole fraction) is 0.0324.

Q: What about the solubility (mole fraction) (in n-pentanol, 308.2 K) of the same compound?
A: The solubility (mole fraction) was 0.034.

Q: What about the solubility (mole fraction) (in n-pentanol, 318.2 K) of the same compound?
A: Its solubility (mole fraction) is 0.0357.

Q: And the solubility (mole fraction) (in n-pentanol, 328.2 K)?
A: The solubility (mole fraction) was 0.0378.

Q: And the solubility (mole fraction) (in n-propanol, 288.2 K)?
A: Its solubility (mole fraction) is 0.03.

Q: And the solubility (mole fraction) (in n-propanol, 298.2 K)?
A: The solubility (mole fraction) was 0.0318.

Q: What about the solubility (mole fraction) (in n-propanol, 308.2 K) of the same compound?
A: The solubility (mole fraction) was 0.0336.

Q: What about the solubility (mole fraction) (in n-propanol, 318.2 K) of the same compound?
A: Its solubility (mole fraction) is 0.0358.

Q: What about the solubility (mole fraction) (in n-propanol, 328.2 K) of the same compound?
A: Its solubility (mole fraction) is 0.0382.

Q: And the solubility (mole fraction) (in sec-butanol, 288.2 K)?
A: Its solubility (mole fraction) is 0.0101.

Q: What about the solubility (mole fraction) (in sec-butanol, 298.2 K) of the same compound?
A: Its solubility (mole fraction) is 0.014.

Q: What about the solubility (mole fraction) (in sec-butanol, 308.2 K) of the same compound?
A: The solubility (mole fraction) was 0.0175.

Q: And the solubility (mole fraction) (in sec-butanol, 318.2 K)?
A: Its solubility (mole fraction) is 0.0217.

Q: And the solubility (mole fraction) (in sec-butanol, 328.2 K)?
A: Its solubility (mole fraction) is 0.0244.

Q: And the solubility (mole fraction) (in water, 288.2 K)?
A: Its solubility (mole fraction) is 3.46e-06.

Q: What about the solubility (mole fraction) (in water, 298.2 K) of the same compound?
A: Its solubility (mole fraction) is 5.76e-06.

Q: What about the solubility (mole fraction) (in water, 308.2 K) of the same compound?
A: The solubility (mole fraction) was 1.12e-05.

Q: And the solubility (mole fraction) (in water, 318.2 K)?
A: Its solubility (mole fraction) is 1.7e-05.

Q: And the solubility (mole fraction) (in water, 328.2 K)?
A: The solubility (mole fraction) was 2.7e-05.
